# Source: patent publication US8486464B2, “Herbal composition for angina pectoris, method to prepare same and uses thereof” (Tasly Pharmaceutical Group Co. Ltd., priority 2000, dated 2013)
# Like-named read-outs stand apart in the source and are kept apart here.
# Key:
# [1] = cited from earlier work
# polychromatic RBCs = assay: Micronucleus rates in mice; assay type: in vivo; conditions: 80 mg/kg; 24 hrs
# [2] = test system: thrombosis, platelet aggregation, coagulation; conditions: single injection of 20 mg/kg; cited from earlier work
# CK, LDH = assay: Dog blood serum CK and LDH; assay type: in vivo; conditions: dogs, Dan Shen Pill 2 g/kg
# Description: (§1) 1.1 Experimental Groups. (1) Blank control group, normal saline 3 ml/kg; (2) DSP group, 2 g natural drug/kg; (3) positive control group, Ditiazem, 5 mg/kg. All the above samples are diluted with normal saline to the same volume of 3 ml/kg and were given to the patient through the duodenum.
# (§2) 1.2 Experimental Method. The dogs are anesthetized with pentobarbital sodium. Chests were opened and coronary arterioles and the central part of the dorsal lower branch separated and tied to create an acute myocardial ischemia model. ECGs were recorded and the level of myocardial ischemia (increased section ST, ST) and area of myocardial ischemia (the total increased decimal places in section ST) were calculated. The oxygen content in the coronary artery was recorded. Blood serum creatine kinase (CK), lactate dehydrogenase (LDH), ET, TXB2 and 6-Keto-PGF1 were measured. The oxygen content of the aorta and coronary vein, and blood flow volume in the coronary arteries were measured to calculate myocardial oxygen consumption. Blood oxygen content in the coronary vein was measured to calculate myocardial oxygen content (myocardial oxygen content=(blood oxygen content in arteries-blood oxygen content in coronary veins)×blood flow volume in coronary artery/100).
# ET, TXB2, 6-Keto-PGF1α = assay: Dog plasma ET, TXB2, 6-Keto-PGF1α; assay type: in vivo; conditions: dogs, Dan Shen Pill 2 g/kg, Diltiazen 5 mg/kg
# Description: as §1, §2
# hemicrania = assay: Hemicrania, DSP vs Flunarizine; assay type: in vivo, human; conditions: 8 weeks
# Description: (2) Effects on hemicrania 58 patients with hemicrania were selected from clinics. They all qualify under International Headache Standards classifications. 10 tablets of DSP (25 mg/tablet) were given to the Treatment group, 3 times/day. 5 mg of Flunarizine was given to the control group, once a day, orally. The medication lasted 8 weeks. Treatment results and side effects were recorded every 2 weeks. No other pain-killing medications were taken within the 6 months.
# Treatment standards. Controlled: Headaches disappeared with medication, and there was no reoccurrence after treatment ended; Obvious efficacy: The seriousness of headaches is reduced, duration is shortened, and onset frequency is reduced to 75% or more; Efficacy: The level of headache is reduced, and onset frequency is reduced 50%˜70%; Failure: No improvement in headaches.
# [3] = cited from earlier work; remark: listed apart in the source
# dizziness = assay: Dizziness, DSP vs lidocaine; assay type: in vivo, human
# Excerpt: 61 patients were divided into two groups at random. 29 patients were in the Treatment group, including 22 patients with insufficient blood supply to the cerebral artery, 7 patients with Meniere Disease, 5 patients with high blood pressure, and 2 patients with coronary heart disease. 32 patients were in the control group, including 22 patients with insufficient blood supply to the cerebral artery, 10 patients with Meniere Disease, 7 patients with high blood pressure, and 4 patients with coronary heart disease. 10 tablets of DSP were given to the Treatment group, 3-5 times/day for 3-7 days. 50 mg of lidocaine was injected into the Control group, once a day for 3-7 days.
# Treatment method: (1) Obvious Efficacy: Dizziness and other companion symptoms disappeared, and there was no re-occurrence for 12 hrs after observation. (2) Efficacy: The level of dizziness and other symptoms disappeared. (3) Failure: No improvement.
# [4] = test system: chronic pulmonary heart disease; assay: Chronic pulmonary heart disease, DSP vs persantin: efficacy; assay type: in vivo, human; conditions: 1 month
# Excerpt: (§3) 90 cases of chronic pulmonary heart disease were selected based on the diagnosis standard set up during the National Pulmonary Heart Disease Congress in 1977. The patients were divided randomly into an Observation group and a Control group. The 60 cases in the Observation group took DSP, while the 30 cases in the Control group took persantin. Based on the objectives of: reduced inflammation, coughing cessation, dissolving of sputum, cardial and diuretic action, and cardiac function improvement, the Observation group was given 10 grains of DSP, 3 times a day. The Control group was given 50 mg of Poon Seng Ding each time, 3 times a day. Treatment lasted 1 month.
# (1) Obvious Efficacy. The symptoms such as coughing, asthma, pulmonary rales, syanosis were relieved or disappeared. The ascites and lower limbs sdema were disappeared as well. Heartbeat was under 100 times/min and cardiac function was improved above grade I-II. The urine volume per day increased by 600 ml and above, while the body weight decreased by 4%. The end-brush circulations were improved.
# (3) Inefficacy. Above all markers were not improved.
# hemorheology = assay: Chronic pulmonary heart disease: hemorheologic markers; assay type: in vivo, human
# Excerpt: as §3
# [5] = Diltiazen 5 mg/kg, 30 min after dosage
# [6] = Diltiazen 5 mg/kg, 60 min after dosage
# [7] = Diltiazen 5 mg/kg, 90 min after dosage
# [8] = Diltiazen 5 mg/kg, 120 min after dosage
# [9] = Diltiazen 5 mg/kg, 180 min after dosage
# [10] = Diltiazen 5 mg/kg, after hypoxia before dosage
# [11] = Ditiazen 5 mg/kg, 30 min after dosage
# [12] = Ditiazen 5 mg/kg, 60 min after dosage
# [13] = Ditiazen 5 mg/kg, 90 min after dosage
# [14] = Ditiazen 5 mg/kg, 120 min after dosage
# [15] = Ditiazen 5 mg/kg, 180 min after dosage
# [16] = Ditiazen 5 mg/kg, after hypoxia before dosage
# [17] = Insufficient blood supply to the brain
molecule,measurement,setting,value
3H-Borneol [Example 3H-Borneol],diminishing half-lifetime,[1]; oral administration,5.3 h
same,half-life time,[1]; single intraveneous injection,2.8 min
O=P1(N(CCCl)CCCl)NCCCO1 (stereo not shown) [CP],Micro-rates (%),polychromatic RBCs,23.0 ± 4.0 %
same,Micronucleus Cells,polychromatic RBCs,138
"O=C(O)[C@H](O)Cc1ccc(O)c(O)c1 [Danshensu, D(+)-3,4-dihydroxyphenyl lactic acid]",duration of effect,[2],1 h
same,time of peak effect,[2],30 min
COc1ccc([C@@H]2Sc3ccccc3N(CCN(C)C)C(=O)[C@@H]2OC(C)=O)cc1 [Diltiazen],"LDH, changing in percentage (before dosage = 100%)","CK, LDH; [5]",101.14 ± 17.90 %
same,blood serum LDH,"CK, LDH; [5]",143.40 ± 28.64 U/L
same,"LDH, changing in percentage (before dosage = 100%)","CK, LDH; [6]",92.58 ± 15.17 %
same,blood serum LDH,"CK, LDH; [6]",134.40 ± 46.48 U/L
same,"LDH, changing in percentage (before dosage = 100%)","CK, LDH; [7]",93.31 ± 19.02 %
same,blood serum LDH,"CK, LDH; [7]",153.00 ± 70.80 U/L
same,"LDH, changing in percentage (before dosage = 100%)","CK, LDH; [8]",121.32 ± 22.12%
same,blood serum LDH,"CK, LDH; [8]",194.60 ± 76.72 U/L
same,"LDH, changing in percentage (before dosage = 100%)","CK, LDH; [9]",117.24 ± 26.69 %
same,blood serum LDH,"CK, LDH; [9]",164.80 ± 49.36 U/L
same,"LDH, changing in percentage","CK, LDH; [10]",101.14 ± 17.90 %
same,blood serum LDH,"CK, LDH; [10]",143.40 ± 28.64 U/L
same,blood serum LDH,"CK, LDH; Diltiazen 5 mg/kg, before hypoxia (normal)",106.40 ± 19.12 U/L
same,6-Keto-PGF1α/TXB2,"ET, TXB2, 6-Keto-PGF1α; 30 min after dosage",1.507 ± 0.505
same,"6-Keto-PGF1α/TXB2, changing in percentage (before dosage = 100%)","ET, TXB2, 6-Keto-PGF1α; 30 min after dosage",148.42 ± 17.35 %
same,6-Keto-PGF1α/TXB2,"ET, TXB2, 6-Keto-PGF1α; 60 min after dosage",1.501 ± 0.358
same,"6-Keto-PGF1α/TXB2, changing in percentage (before dosage = 100%)","ET, TXB2, 6-Keto-PGF1α; 60 min after dosage",155.44 ± 28.97 %
same,6-Keto-PGF1α/TXB2,"ET, TXB2, 6-Keto-PGF1α; 90 min after dosage",1.980 ± 0.924
same,"6-Keto-PGF1α/TXB2, changing in percentage (before dosage = 100%)","ET, TXB2, 6-Keto-PGF1α; 90 min after dosage",203.82 ± 83.25 %
same,6-Keto-PGF1α/TXB2,"ET, TXB2, 6-Keto-PGF1α; 120 min after dosage",1.980 ± 0.924
same,"6-Keto-PGF1α/TXB2, changing in percentage (before dosage = 100%)","ET, TXB2, 6-Keto-PGF1α; 120 min after dosage",203.82 ± 83.25 %
same,6-Keto-PGF1α/TXB2,"ET, TXB2, 6-Keto-PGF1α; 180 min after dosage",1.801 ± 0.596
same,"6-Keto-PGF1α/TXB2, changing in percentage (before dosage = 100%)","ET, TXB2, 6-Keto-PGF1α; 180 min after dosage",198.48 ± 87.02 %
same,6-Keto-PGF1α/TXB2,"ET, TXB2, 6-Keto-PGF1α; after hypoxia before dosage",143.40 ± 28.64
same,"6-Keto-PGF1α/TXB2, changing in percentage","ET, TXB2, 6-Keto-PGF1α; after hypoxia before dosage",101.14 ± 17.90 %
same,6-Keto-PGF1α/TXB2,"ET, TXB2, 6-Keto-PGF1α; before hypoxia (normal value)",106.40 ± 19.12
COc1ccc([C@@H]2Sc3ccccc3N(CCN(C)C)C(=O)[C@@H]2OC(C)=O)cc1 [Ditiazen],"CK, changing in percentage (before dosage = 100%)","CK, LDH; [11]",97.20 ± 12.50 %
same,blood serum CK,"CK, LDH; [11]",660.40 ± 184.88 U/L
same,"CK, changing in percentage (before dosage = 100%)","CK, LDH; [12]",108.84 ± 20.71 %
same,blood serum CK,"CK, LDH; [12]",737.80 ± 159.04 U/L
same,"CK, changing in percentage (before dosage = 100%)","CK, LDH; [13]",115.31 ± 19.97 %
same,blood serum CK,"CK, LDH; [13]",820.80 ± 289.76 U/L
same,"CK, changing in percentage (before dosage = 100%)","CK, LDH; [14]",314.91 ± 23.35 %
same,blood serum CK,"CK, LDH; [14]",972.40 ± 347.28 U/L
same,"CK, changing in percentage (before dosage = 100%)","CK, LDH; [15]",179.51 ± 10.60 %
same,blood serum CK,"CK, LDH; [15]",1238.60 ± 309.12 U/L
same,"CK, changing in percentage","CK, LDH; [16]",219.80 ± 38.93 %
same,blood serum CK,"CK, LDH; [16]",699.60 ± 211.52 U/L
same,blood serum CK,"CK, LDH; Ditiazen 5 mg/kg, before hypoxia (normal)",316.20 ± 63.04 U/L
Fc1ccc(C(c2ccc(F)cc2)N2CCN(C/C=C/c3ccccc3)CC2)cc1 [Flunarizine],"Controlled, number of cases",hemicrania,5
same,"Efficacy, number of cases",hemicrania,7
same,"Failure, number of cases",hemicrania,9
same,"Obvious efficacy, number of cases",hemicrania,7
same,total efficacy,hemicrania,67.86%
"Cc1nc(C)c(C)nc1C.O=P(O)(O)O [TMP, tetramethylpyrazine phosphate]",Cmax,[3]; TMP 5 mg/kg ig with previous borneol 5 mg/kg,931 ng/mL
same,Cmax,[3]; TMP 5 mg/kg ig without borneol,562 ng/mL
CCN(CC)CC(=O)Nc1c(C)cccc1C [lidocaine],total efficacy,"dizziness; 3-7 days, 29 DSP, 32 lidocaine patients",87.5%
same,"Efficacy, cases",dizziness; [17],8
same,"Failure, cases",dizziness; [17],2
same,"Obvious Efficacy, cases",dizziness; [17],12
same,"Total efficacy, %",dizziness; [17],91%
same,"Total efficacy, cases",dizziness; [17],20
same,"Efficacy, cases",dizziness; Meniere disease,2
same,"Failure, cases",dizziness; Meniere disease,2
same,"Obvious Efficacy, cases",dizziness; Meniere disease,6
same,"Total efficacy, %",dizziness; Meniere disease,80%
same,"Total efficacy, cases",dizziness; Meniere disease,8
same,"Efficacy, cases",dizziness; Total (all dizziness patients),10
same,"Failure, cases",dizziness; Total (all dizziness patients),4
same,"Obvious Efficacy, cases",dizziness; Total (all dizziness patients),18
same,"Total efficacy, %",dizziness; Total (all dizziness patients),87.5%
same,"Total efficacy, cases",dizziness; Total (all dizziness patients),28
OCCN(CCO)c1nc(N2CCCCC2)c2nc(N(CCO)CCO)nc(N3CCCCC3)c2n1 [persantin],"Efficacy, number of cases",[4],9
same,"Efficacy, rate",[4],0.3
same,"Obvious efficacy, number of cases",[4],14
same,"Obvious efficacy, rate",[4],0.47
same,Total efficacy rate,[4],0.76
same,"Total efficacy, number of cases",[4],23
same,"inefficacy, number of cases",[4],7
same,"inefficacy, rate",[4],0.23
same,Total efficacy rate,"[4]; 60 DSP, 30 persantin",76%
same,Aggregation rate of platelet,"hemorheology; After treatment, 1 month",32.28 ± 20.30%
same,Blood viscosity,"hemorheology; After treatment, 1 month",3.66 ± 0.58
same,Fibrinogen,"hemorheology; After treatment, 1 month",3.60 ± 0.23 g/L
same,Hematocrit,"hemorheology; After treatment, 1 month",0.37 ± 0.05 VOL/%
same,Aggregation rate of platelet,hemorheology; before treatment,4.16 ± 2.32%
same,Blood viscosity,hemorheology; before treatment,4.35 ± 0.81
same,Fibrinogen,hemorheology; before treatment,4.22 ± 0.34 g/L
same,Hematocrit,hemorheology; before treatment,0.48 ± 0.05 VOL/%
